In US9078915B2, “Prostate carcinogenesis predictor” (University of South Florida, priority 2007, dated 2015):

How the values were obtained:
DU-145 cells = assay: Cell viability, trypan blue exclusion assay, DU-145; assay type: cell-based, human
Description: (§1) The siRNAs complexes were made according to the following procedures: 60 μl of siRNAs (10 μM stock solution) were combined with 60 μl of tranfection reagent and incubated at room temperature for 30 minutes to make the siRNA complex. The siRNA complex was then added to twenty four hours post plated cells giving a final concentration of 50 nM of siRNA complex in complete media. The cells were incubated with either siRNA-A, or PKC-ι, PKC-ζ, and PKC-δ siRNA (50 nM for RWPE-1, 100 nM for LNCaP and 150 nM for DU-145 respectively). Following treatments, the cells were washed with phosphate buffered saline (PBS), trypsinized and resuspended in 2-3 ml of PBS.
(§2) Cell viability was quantified using trypan blue exclusion assay and the numbers of unstained cells were counted as mentioned above. Three independent experiments were carried out for each treatment with controls. Cell viability was determined relative to vehicle control using the mean and SD for each time point. Statistical determination by Student's T test using Minitab program (Minitab Inc. State College, Pa.).
(§3) Subconfluent RWPE-1 (A), LNCaP (B) and DU-145 (C) cells (2.5×10^5) were treated with PKC-ι siRNA (50 nM for RWPE-1, 100 nM for LNCaP and 150 nM for DU-145) complex from 24-72 h as described in “Materials and Methods.” At the indicated time, the viable cells were counted using trypan blue exclusion assay and a hematocyometry. Three independent experiments were performed and the mean of the viable cells and SD were plotted. After titrating PKC-ι siRNA concentrations from 50-100 nM, we used an optimal concentration of PKC-ι siRNA (50 nM) and control siRNA to suppress PKC-ι expression. […]
(§4) Cell lysates (50 μg) of an exponentially growing DU-145 cells were immunoprecipitated with either rabbit polyclonal PKC-ι antibody and/or IKKα/β rabbit polyclonal antibody. […] After incubation for 24-72 hours with ICA-1 (0.1 μM-60 μM), both the control cells and ICA-1 treated cells were trypsinized and viable cells were counted using trypan blue exclusion assay and a hematocytometry. […]

LNCaP cells = assay: Cell viability, trypan blue exclusion assay, LNCaP; assay type: cell-based, human
Description: as §1, §2, §3, §4

PKC-ι = molecular target: T1, PKC-ι (Homo sapiens, UniProt P41743); assay: Kinase assay: phosphorylation of IKKα/β by immunoprecipitated PKC-ι from DU-145 cells; assay type: biochemical; settings: ICA-1 100 nM, co-immunoprecipitated PKC-ι and IKKα/β
T1 construct: Cell lysates (50 μg) of an exponentially growing DU-145 cells were immunoprecipitated with either rabbit polyclonal PKC-ι antibody; endogenous in cells; host or cells: DU-145 (whole cell lysate, immunoprecipitate on anti-rabbit IgG-agarose beads)
T1 sequence (P41743 1-596): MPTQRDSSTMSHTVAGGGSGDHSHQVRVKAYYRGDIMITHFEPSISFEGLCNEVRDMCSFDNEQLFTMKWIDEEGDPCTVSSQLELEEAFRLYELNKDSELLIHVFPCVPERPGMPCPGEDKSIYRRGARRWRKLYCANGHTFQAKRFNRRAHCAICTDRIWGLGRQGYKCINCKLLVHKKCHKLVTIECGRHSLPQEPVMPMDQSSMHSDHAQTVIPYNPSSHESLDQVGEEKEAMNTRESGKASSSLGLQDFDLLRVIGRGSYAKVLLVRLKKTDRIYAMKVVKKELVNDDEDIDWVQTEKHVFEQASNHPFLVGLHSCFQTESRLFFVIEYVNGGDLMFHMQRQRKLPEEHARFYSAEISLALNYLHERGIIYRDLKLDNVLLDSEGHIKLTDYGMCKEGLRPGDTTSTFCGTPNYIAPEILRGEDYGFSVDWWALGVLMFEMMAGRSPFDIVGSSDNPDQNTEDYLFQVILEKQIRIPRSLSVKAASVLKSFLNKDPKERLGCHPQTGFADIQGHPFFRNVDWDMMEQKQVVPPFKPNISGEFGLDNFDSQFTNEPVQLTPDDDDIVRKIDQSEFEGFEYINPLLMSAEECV
Description: DU-145 cells (3.75×10^5) were grown as a monolayer in T75 flasks overnight. Whole cell lysates of (100 μg) were immunoprecipitated as follows: cell lystaes (50 μg) were pre-cleared for 30 min at 4° C. with anti-rabbit IgG-agarose beads (1:1 v/v, 10 μl) (catalog number A8914; Sigma Aldrich) and incubated with 5 μg of PKC-ι rabbit polyclonal antibody and/or IKKα/β rabbit polyclonal antibody (5 μg) overnight at 4° C. and then a further 1 h with anti-rabbit IgG-agarose beads (1:1 v/v, 50 μl). The immunoprecipitated samples were incubated with kinase buffer (50 μl of 3.03 mg/10 ml ATP, 30 mM of Tris p.H 7.4, 50 μl of 5 μg phosphotidylserine) at 30° C. in a water bath for 5 minutes. The reaction was terminated by placing the samples in ice. The PKC-ι inhibitor 1H-imidazole-4-carboxamide, 5-amino-1-[2,3-dihydroxy-4-[(phosphonooxy)methyl]cyclopentyl]-, [1R-(1a, 2b, 3b, 4a)] (ICA-1; 100 nM) was synthesized by Southern Research Institute (Birmingham, Ala.). […]
as §4

NC(=O)c1ncn(C2CC(COP(=O)(O)O)C(O)C2O)c1N (stereo not drawn) [ICA-1, 1H-imidazole-4-carboxamide, 5-amino-1-[2,3-dihydroxy-4-[(phosphonooxy)methyl]cyclopentyl]-, [1R-(1a, 2b, 3b, 4a)]]
inhibition of cell proliferation (DU-145 cells; DU-145, ICA-1 0.1 μM-60 μM, 24-72 hours): does not significantly (p>0.05 for both cell lines) inhibit | cell numbers at low concentration (DU-145 cells; DU-145, ICA-1 0.1-0.5 μM): increase in cell numbers | cell growth at high concentration (DU-145 cells; DU-145, ICA-1 10-60 μM): inhibition of cell growth | inhibition of cell proliferation (LNCaP cells; ICA-1 0.1 μM-60 μM, 24-72 hours): does not significantly (p>0.05 for both cell lines) inhibit | cell numbers at low concentration (LNCaP cells; ICA-1 0.1-0.5 μM): increase in cell numbers | cell growth at high concentration (LNCaP cells; ICA-1 10-60 μM): inhibition of cell growth | phosphorylation of IKKα/β (Ser176/180) by PKC-ι (PKC-ι): inhibited
